Where two headings read alike, the source gives them in different places.
Assays:
Tobacco callus = Tobacco callus growth on plates with AMPA or N-acetyl AMPA; type: cell-based, Nicotiana tabacum cv. "Samsun"; settings: plates with 0.1 mM or 0.4 mM, up to three weeks
Method: Tobacco callus was generated from leaf pieces of wild type Nicotiana tabacum cv. “Samsun” tobacco on MS104 plates (MS salts 4.3 g/l, sucrose 30 g/l, B5 vitamins 500X 2 ml/l, NAA 0.1 mg/l, and Bacto Agar […]). Callus tissue was applied to plates with or without AMPA and with or without N-acetyl AMPA. Plates contained AMPA or N-acetyl AMPA at concentrations of 0.1 mM or 0.4 mM. Plates were incubated for up to three weeks and monitored periodically.

Wheat immature embryos = assay: Wheat embryo germination assay; type: in vivo; settings: for Germinating root length / Germinating shoot length: ten days
Method: Wheat immature embryos were exposed to different concentrations of AMPA and N-acetyl-AMPA in a wheat embryo germination assay. MMSO base media was prepared containing 40 grams per liter maltose, 2 grams per liter GELRITE™, MS salts, and vitamins. Salts, vitamins, and maltose were dissolved in 3500 ml water and the pH was adjusted to 5.8. 500 ml was dispensed into a separate bottle along with 1 gram of GELRITE™ and autoclaved for 17 minutes. After the medium had cooled to about 45° C., AMPA or N-acetyl-AMPA was added to a defined concentration. The mixture was poured into six square Sundae cups under sterile conditions and allowed to solidify.
Immature wheat embryos were isolated from twenty day old seedlings (after anther formation) and inoculated into each MMSO media. Each Sundae cup contained nine immature embryo's. Three separate plates were used for each concentration of AMPA (0, 0.1, 0.15, 0.2, 0.25, 0.3, and 1.0 mM) or N-acetyl-AMPA (0, 0.1, 0.3, 1.0, and 3.0 mM). Sundae cups were incubated for ten days and the length of roots and shoots were determined and compared.

PhnO enzyme = PhnO enzyme (Escherichia coli, UniProt P16691, P2A)
Method: The apparent Km of PhnO for the substrate acetyl-CoA was determined in similar experiments. After several attempts to obtain end point kinetics, it was determined that the turnover number was too low to be reliable at AMPA concentrations of about 30 mM and enzyme amounts of about 1-10 ng. An alternative approach was tried using tritium labeled acetyl-CoA. The specific activity of the label was about 40× higher than with [^14C], providing a gain in sensitivity that allowed for the determination of the apparent Km of PhnO for Acetyl-CoA. The [^3H]-acetyl-CoA (Amersham, Inc.) specific activity was 360 mCi/mg or 250 μCi/ml. […] This was accomplished by adjusting the concentration of KH2PO4 buffer (pH 5.5) to 40 mM with a flow rate of 1 ml per minute over an AX100 weak anion exchange column. Each sample was reacted with PhnO and 30 mM AMPA for five minutes at 37° C. and quenched with 100 mM NaOAc pH 4.4 in ethanol, then analyzed by HPLC. [^3H]-acetyl-CoA substrate ranged from 25 micromolar to 1.3 mM in each reaction along with about 5 ng PhnO, 50 mM Tris pH 7.5, 1 mM MnCl2, 1 mM MgCl2, and 30 mM AMPA. Samples were analyzed by HPLC to determine the amounts of N-[^3H]-acetyl-AMPA produced, and [^3H]-acetyl-CoA remaining.

purified PhnO protein = target: T1, purified PhnO protein (Escherichia coli, UniProt P16691, P2A); assay: AMPA transacylase acyl-CoA acyl donor specificity, HPLC; type: biochemical, E. coli; settings: for [^14C]-AMPA % Conversion: 5 minutes 30° C.; for % Activity: 1 mM acetyl-CoA = 100% reference
T1 construct: made in house; host or cells: E. coli JM101 carrying pMON15032 (recA promoter, nalidixic acid induction)
Method: PhnO was purified from a one liter Luria Bertani broth culture of E. coli JM101 expressing a recombinant phnO gene from pMON15032 after nalidixic acid induction for three hours at 37° C. Cells were harvested by centrifugation and resuspended in 40 ml cold Tris buffer (0.1 M Tris-HCl pH 8) and placed on ice. The cell suspension was brought to 1 mM DTT and 0.5 mM PMSF. The suspension was lysed by 2 passages through a prechilled French pressure cell at 1,100 psi, centrifuged at 12,000 g (10,000 rpm in an Sorvall SA600 rotor) for 40 min at 4° C., then placed on ice. The cleared supernatants were poured into fresh 15 ml polypropylene tubes. The samples were split again into two equal portions and maintained at −80° C. until used further for purification of PhnO protein. 20 microliters of the soluble fraction was assayed for enzyme activity using the HPLC method described above in Example 2, except after terminating the assay with acid addition, the sample was stored at −80° C. A Sephacryl S200 column was prepared according to the manufacturers' instructions and equilibrated with a solution containing 20 mM Tris pH 8.0 and 0.5 mM MgCl2. The entire total soluble extract was layered over the top of the column bed after thawing on ice. Forty 9 ml fractions were collected from the column eluate, and thirty microliters of each fraction was analyzed by western blot using anti-PhnO antiserum after resolution on a 15% SDS-PAGE gel. Also, thirty microliters of each fraction was analyzed for AMPA acyl transferase activity using the method described in Example 2. […] These were represented by fractions 7 through 19 in this example, and were combined into a 100 ml volume, distributed into […] each containing 10 ml volumes, and stored at −80° C. for further use.
Anion exchange chromatography was used to determine the elution pattern of PhnO away from other contaminating proteins that co-elute during the Sephacryl S200 fractionation. One tube from the combined PhnO positive fractions was thawed on ice and injected into a 5/5 Mono-Q column pre-equilibrated with buffers A (one liter of 20 mM Tris-HCl pH 8.0 Mili-Q distilled deionized water) and B (one liter of 20 mM Tris-HCl pH 8.0, 1 M NaCl). The sample containing PhnO active protein was injected into the column and one milliliter fractions were collected. The column was washed for five minutes with a flow rate of 1.8 ml per minute Buffer A after loading the PhnO containing sample. At five minutes, Buffer B was added to the flow volume at 0.5 ml per minute for four minutes. Buffer B was ramped up to 22% of the flow volume at 10 minutes, 30% at 12 minutes, 36% at 13 minutes, 41% at 14 minutes, 46% at 15 minutes, 74% at 16 minutes, and 100% at 16 minutes through 22 minutes, at which point Buffer B flow was terminated and Buffer A was reinitiated at 100% to equilibrate the column. Ten microliter volumes from individual fractions collected from the Mono-Q column were analyzed by western blot and for transacylase activity as described in Example 2. […] Samples of this purified PhnO protein were used to determine enzyme's acyl donor substrate specificity.
Enzyme reactions were prepared as follows. […] A assay premix was prepared from which 45 microliters was used in each 100 microliter reaction. This 45 microliter premix sample consisted of 40 microliters distilled and deionized water, 2 microliters of 50 mM MgCl2, and 3 microliters of 1.3 mM [^14C]-AMPA (115,392 dpm per microliter). Reactions were initiated by mixing 40 microliters of 125 mM Tris-HCl pH 8.0, […] protein sample and 10 microliters acyl-CoA acyl donor compound in a microcentrifuge tube at room temperature. Each acyl-CoA acyl donor compound was prepared as a stock solution of 1 mM, 5 mM or 10 mM stocks. Each tube was then mixed with 45 microliters of the assay premix containing the [^14C]-AMPA […] substrate, mixed gently and transferred to a 30° C. water bath for 5 minutes. […]

[1] = system: AMPA acyltransferase activity; assay: AMPA acyltransferase HPLC assay of bacterial lysates; type: biochemical; settings: lysates of induced E. coli JM101 transformants
[2] = any concentration tested (0.1-3.0 mM)

N-acetyl-amino-methyl-phosphonate [N-acetyl AMPA]
growth of tobacco callus tissue (Tobacco callus): not inhibited
Germinating root length (Wheat immature embryos; 0.10 mM): 5.9 ± 1.4 cm
Germinating shoot length (Wheat immature embryos; 0.10 mM): 12.0 ± 2.4 cm
Germinating root length (Wheat immature embryos; 0.30 mM): 5.2 ± 1.2 cm
Germinating shoot length (Wheat immature embryos; 0.30 mM): 11.7 ± 3.5 cm
Germinating root length (Wheat immature embryos; 1.00 mM): 5.4 ± 1.5 cm
Germinating shoot length (Wheat immature embryos; 1.00 mM): 12.2 ± 3.2 cm
Germinating root length (Wheat immature embryos; 3.00 mM): 5.9 ± 1.6 cm
Germinating shoot length (Wheat immature embryos; 3.00 mM): 11.2 ± 2.6 cm
inhibition of root elongation (Wheat immature embryos; [2]): only mildly inhibitory
inhibition of shoots (Wheat immature embryos; [2]): not inhibitory
concentration with no significant effects to immature embryo germination (Wheat immature embryos; in vivo): less than 3.0 mM

CC(=O)SCCNC(=O)CCNC(=O)[C@H](O)C(C)(C)COP(=O)(O)OP(=O)(O)OC[C@H]1O[C@@H](n2cnc3c(N)ncnc32)[C@H](O)[C@@H]1OP(=O)(O)O [Acetyl-CoA]
Velocity (PhnO enzyme; [Acetyl-CoA] 25 micromolar, 30 mM AMPA): 34
Velocity (PhnO enzyme; [Acetyl-CoA] 50 micromolar): 66
Velocity (PhnO enzyme; [Acetyl-CoA] 75 micromolar): 94
Velocity (PhnO enzyme; [Acetyl-CoA] 100 micromolar): 125
Velocity (PhnO enzyme; [Acetyl-CoA] 125 micromolar): 150
Velocity (PhnO enzyme; [Acetyl-CoA] 150 micromolar): 173
Velocity (PhnO enzyme; [Acetyl-CoA] 175 micromolar): 193
Velocity (PhnO enzyme; [Acetyl-CoA] 200 micromolar): 219
Velocity (PhnO enzyme; [Acetyl-CoA] 225 micromolar): 240
Velocity (PhnO enzyme; [Acetyl-CoA] 250 micromolar): 259
Velocity (PhnO enzyme; [Acetyl-CoA] 375 micromolar): 339
Velocity (PhnO enzyme; [Acetyl-CoA] 390 micromolar): 287
Velocity (PhnO enzyme; [Acetyl-CoA] 520 micromolar): 331
Velocity (PhnO enzyme; [Acetyl-CoA] 650 micromolar): 352
Velocity (PhnO enzyme; [Acetyl-CoA] 780 micromolar): 372
Velocity (PhnO enzyme; [Acetyl-CoA] 910 micromolar): 397
Velocity (PhnO enzyme; [Acetyl-CoA] 1040 micromolar): 411
Velocity (PhnO enzyme; [Acetyl-CoA] 1170 micromolar): 425
Velocity (PhnO enzyme; [Acetyl-CoA] 1300 micromolar): 434
apparent Vmax (PhnO enzyme; acetyl-CoA substrate, Lineweaver-Burk plot): about 824 U/mg protein
Km (PhnO enzyme; read-out: apparent Km of PhnO for acetyl-CoA as a substrate, 30 mM AMPA, Lineweaver-Burk plot of Table 9 data): 375 to 390 µM
[^14C]-AMPA % Conversion (purified PhnO protein; acyl donor 0.1 mM): 79.2%
% Activity (purified PhnO protein; acyl donor 0.1 mM): 79.2%
[^14C]-AMPA % Conversion (purified PhnO protein; acyl donor 0.5 mM): 98.7%
% Activity (purified PhnO protein; acyl donor 0.5 mM): 98.7%
[^14C]-AMPA % Conversion (purified PhnO protein; acyl donor 1 mM): 100.00%
% Activity (purified PhnO protein; acyl donor 1 mM): 100.00%

B1: CTP-PhnO peptide: chloroplast transit peptide fused to PhnO (SEQ ID NO:12) (protein)
chain: MASSMLSSATMVASPAQATMVAPFNGLKSSAAFPATRKANNDITSITSNGGRVNCMQVWPPIGKKKFETLSYLPDLTDSGGRVNCMQAMAACELRPATQYDTDAVYALICELKQAEFDHHAFRVGFNANLRDPNMRYHLALLDGEVVGMIGLHLQFHLHHVNWIGEIQELVVMPQARGLNVGSKLLAWAEEEARQAGAEMTELSTNVKRHDAHRFYLREGYEQSHFRFTKAL
AMPA acyltransferase activity of cell lysates [1]: retain full enzymatic acyltransferase activity

Source: patent publication US7554012B2, “Plants and plant cells exhibiting resistance to AMPA, and methods for making the same” (priority 1998, dated 2009)
